Results published in patent publication US20150119247A1, “Composition and Method for Stress Mitigation in Plants” (Stoller Enterprises, Inc., priority 2011, published 2015).

Columns and labels:
Assay type in all cases: in vivo
[1] = test system: field-grown beans (i.e., lima beans); assay: Lima bean field yield, Gustine, CA, 2010; settings: aqueous kinetin solution applied to foliage just prior to flowering at one pint per acre or two pints per acre; up to approx. 35 degrees Celsius
Procedure: In this example, the effect of the plant growth regulator cytokinin, specifically kinetin, applied at the beginning of flowering and two to four weeks thereafter to field-grown beans (i.e., lima beans) in Gustine, Calif. was observed. Growing temperatures up to approximately 35 degrees Celsius were recorded. […] The difference of “t” test of 5% is significant.

Arabidopsis thaliana = assay: High temperature seed/silique development, first experiment (FIG. 1)
From the text: These experiments employed the model crop plant, Arabidopsis thaliana, whose genome was mapped as early as the year 2000. To ensure uniformity, the tested plants were selected such that they were in the beginning stages of flowering and had balanced numbers of flowers across groups. The control agent as well as all tested agents were applied in a water solution containing 0.01% Silwet® super spreader (obtained from General Electric) to the leaves and flowers (i.e., foliage) of the tested plants. […] The third and fourth agents tested consisted of 6-benzyl adenine (6-BA) and kinetin (KIN)—both cytokinins—each applied at the rate of 100 μg/1 (0.1 ppm). […] Aqueous solutions of the tested agents prepared to the stated concentrations/doses were sprayed onto test groups of flowers and leaves (i.e., foliage) of Arabidopsis thaliana until runoff at one day prior to heat exposure and again at four days after the beginning of heat exposure. The total duration of heat exposure was fourteen (14) days. […] The seed pods (i.e. siliques), filled with developed seeds (siliques >7 mm long and/or >1 mm wide and/or bearing seeds), were counted just prior to the beginning of the experiment, and again after fourteen (14) days of heat exposure treatments.

field-grown corn crops = assay: Field-grown corn treated before the reproductive stage, Weslaco, Tex.: yield and seed size
From the text: In this example, the effect of the plant growth regulator cytokinin, specifically kinetin, and applied at various times before the reproductive stages of growth, was observed. In Table 2, V7, V10, V13, and V16 refer to stages of growth of the corn plant. V7 refers to the growth stage where the collar of the seventh leaf is visible, V10 refers to the growth stage where the collar of the tenth leaf is visible, V13 refers to the growth stage where the collar of the thirteenth leaf is visible, and V16 refers to the growth stage where the collar of the sixteenth leaf is visible. V16 is also just prior to the reproductive stage of growth. The corn crops were grown in Weslaco, Tex. The water levels were either none (i.e., simply rain referred to as dryland), or drip through a “drip tape” (i.e., drip irrigation whereby sufficient water was applied for more optimal growth of the crop). Results are given for yield (measured in bushels per acre), and the weight of the seed (measured in grams per 1,000 kernels). T tests indicate whether there were differences.

field corn = assay: Field corn yield trials, Ohio, cytokinin with low potassium; settings: potassium ½ lb. to 1 lb. per acre with cytokinin (X-Cyte) 1 pint per acre; unreplicated field trials over three years
From the text: In this example, the effect of the plant growth regulator/hormone, cytokinin, applied together with low concentrations of potassium, was observed. The cytokinin that was field-applied was X-Cyte, as previously disclosed. In these unreplicated field trials, conducted in Ohio over a three year period, potassium at ½ lb. to 1 lb. per acre and cytokinin at 1 pint per acre were applied to field corn. The average increase in yield attained by applying potassium, in addition to cytokinin, was approximately fifteen (15) bushels per acre.

[2] = EXPT 1, stage V10, variety B25DC25 R80, drip
[3] = EXPT 1, stage V16, variety B25DC25 R80, drip
[4] = EXPT 2, stage V10, variety Asgrow 7573, dry land
[5] = EXPT 3, stage V7, variety H2684162, dry land
[6] = EXPT 3, stage V10, variety H2684162, dry land
[7] = EXPT 3, stage V13, variety H2684162, dry land
[8] = EXPT 3, stage V16, variety H2684162, dry land

Structure (SMILES): c1coc(CNc2ncnc3[nH]cnc23)c1 [kinetin]
- lima bean yields [1]: increased significantly
- number of seeds (i.e., siliques) (Arabidopsis thaliana; 100 μg/l (0.1 ppm) sprayed on foliage 1 day before and 4 days after start of heat, 14 days at 33-36 degrees Celsius days): increased number of seeds
- 1,000 Kernel wt g (field-grown corn crops; [2]): 298 g
- Yield Bu/acre (field-grown corn crops; [2]): 259 Bu/acre
- 1,000 Kernel wt g (field-grown corn crops; [3]): 298 g
- Yield Bu/acre (field-grown corn crops; [3]): 311 Bu/acre
- 1,000 Kernel wt g (field-grown corn crops; [4]): 244 g
- Yield Bu/acre (field-grown corn crops; [4]): 149 Bu/acre
- 1,000 Kernel wt g (field-grown corn crops; [5]): 295 g
- Yield Bu/acre (field-grown corn crops; [5]): 212 Bu/acre
- 1,000 Kernel wt g (field-grown corn crops; [6]): 296 g
- Yield Bu/acre (field-grown corn crops; [6]): 211 Bu/acre
- 1,000 Kernel wt g (field-grown corn crops; [7]): 299 g
- Yield Bu/acre (field-grown corn crops; [7]): 208 Bu/acre
- 1,000 Kernel wt g (field-grown corn crops; [8]): 296 g
- Yield Bu/acre (field-grown corn crops; [8]): 207 Bu/acre
- yield versus untreated control (field-grown corn crops; all treatments (stages V7 to V16, drip and dryland)): enhanced yield in a highly significant fashion
- seed size versus untreated control (field-grown corn crops; dryland conditions (no added water or irrigation)): increased seed size in a highly significant fashion

Structure (SMILES): [K+] [potassium]
- average increase in yield by applying potassium in addition to cytokinin (field corn): ~15 bushels per acre

Structure (SMILES): OC[C@H]1O[C@@](CO)(O[C@H]2O[C@H](CO)[C@@H](O)[C@H](O)[C@H]2O)[C@@H](O)[C@@H]1O [sucrose]
- sugar/photosynthate deficiency (plant autophagy) (Arabidopsis thaliana; sucrose solutions of 20 mM and 100 mM sprayed on foliage, 14 days heat exposure): alleviated the sugar/photosynthate deficiency
